In brackets after ≈: the same amount, converted by molar mass.
tested on: RAW264.7; assay: Antiinflammatory activity in mouse RAW264.7 cells assessed as inhibition of LPS induced iNOS-dependent nitric oxide production at 1.25 ug/ml after 24 hrs by Griess assay relative to control; format: functional; details: RAW264.7, 24 h

| SMILES | inhibition at 1.25 µg/mL [%] |
| --- | --- |
| COc1ccc(C(=O)/C=C/c2cc(OC)ccc2OC)c(O)c1 | 7.4 |
| COc1ccc(C(=O)CCc2ccc(OC)c(OC)c2)c(O)c1 | 18.4 |
| COc1ccc(C(=O)CCc2ccc(OC)c(OC)c2OC)c(O)c1 | 0.9 |
| COc1ccc(CCC(=O)c2ccc(OC)c(OC)c2)cc1OC | 5.9 |
| COc1ccc(CCC(=O)c2ccc(OC)c(OC)c2)cc1 | 14.1 |
| COc1ccc(CCCc2ccc(OC)c(OC)c2)cc1O | 32.4 |
| COc1ccc(/C=C/C(=O)c2ccc(OC)c(OC)c2)cc1 | 5.1 |
| COc1ccc(/C=C/C(=O)c2ccc(OC)c(OC)c2)cc1O | 1.1 |
| COc1ccc(C(=O)/C=C/c2ccc(OC)c(OC)c2)c(O)c1 | 9.1 |
| COc1ccc(CCCc2cccc(O)c2)cc1 | 22.2 |
| COc1ccc(C(=O)CCc2ccc3c(c2)OCO3)c(OC)c1 | 0.2 |

tested on: RAW264.7; assay: Antiinflammatory activity in mouse RAW264.7 cells assessed as inhibition of LPS induced iNOS-dependent nitric oxide production at 2.5 ug/ml after 24 hrs by Griess assay relative to control; format: functional; details: RAW264.7, 24 h

| SMILES | inhibition at 2.5 µg/mL [%] |
| --- | --- |
| COc1ccc(C(=O)/C=C/c2cc(OC)ccc2OC)c(O)c1 | 0.7 |
| COc1ccc(C(=O)CCc2ccc(OC)c(OC)c2)c(O)c1 | 23.9 |
| COc1ccc(C(=O)CCc2ccc(OC)c(OC)c2OC)c(O)c1 | 2.8 |
| COc1ccc(CCC(=O)c2ccc(OC)c(OC)c2)cc1OC | 8.2 |
| COc1ccc(CCC(=O)c2ccc(OC)c(OC)c2)cc1 | 32.5 |
| COc1ccc(CCCc2ccc(OC)c(OC)c2)cc1O | 36.3 |
| COc1ccc(/C=C/C(=O)c2ccc(OC)c(OC)c2)cc1 | 52 |
| COc1ccc(/C=C/C(=O)c2ccc(OC)c(OC)c2)cc1O | 1.8 |
| COc1ccc(C(=O)/C=C/c2ccc(OC)c(OC)c2)c(O)c1 | 3 |
| COc1ccc(CCCc2cccc(O)c2)cc1 | 20.5 |
| COc1ccc(C(=O)CCc2ccc3c(c2)OCO3)c(OC)c1 | 4.5 |

tested on: not listed separately; assay: Cytotoxicity against LPS-stimulated mouse RAW264.7 cells assessed as cell viability at 2.5 ug/ml after 24 hrs by MTT assay relative to control; format: cell-based; details: LPS-stimulated RAW264.7 cells, read-out: Activity

| SMILES | viability at 24 h, 2.5 ug/ml [%] |
| --- | --- |
| COc1ccc(C(=O)/C=C/c2cc(OC)ccc2OC)c(O)c1 | 93.3 |
| COc1ccc(C(=O)CCc2ccc(OC)c(OC)c2)c(O)c1 | 89 |
| COc1ccc(C(=O)CCc2ccc(OC)c(OC)c2OC)c(O)c1 | 94.4 |
| COc1ccc(CCC(=O)c2ccc(OC)c(OC)c2)cc1OC | 98 |
| COc1ccc(CCC(=O)c2ccc(OC)c(OC)c2)cc1 | 98.6 |
| COc1ccc(CCCc2ccc(OC)c(OC)c2)cc1O | 95.5 |
| COc1ccc(/C=C/C(=O)c2ccc(OC)c(OC)c2)cc1 | 93.1 |
| COc1ccc(/C=C/C(=O)c2ccc(OC)c(OC)c2)cc1O | 82.1 |
| COc1ccc(C(=O)/C=C/c2ccc(OC)c(OC)c2)c(O)c1 | 92.6 |
| COc1ccc(CCCc2cccc(O)c2)cc1 | 99.2 |
| COc1ccc(C(=O)CCc2ccc3c(c2)OCO3)c(OC)c1 | 87.2 |

tested on: RAW264.7; assay: Antiinflammatory activity in mouse RAW264.7 cells assessed as inhibition of LPS induced iNOS-dependent nitric oxide production at 5 ug/ml after 24 hrs by Griess assay relative to control; format: functional; details: RAW264.7, 24 h

| SMILES | inhibition at 5 µg/mL [%] |
| --- | --- |
| COc1ccc(C(=O)/C=C/c2cc(OC)ccc2OC)c(O)c1 | 6.1 |
| COc1ccc(C(=O)CCc2ccc(OC)c(OC)c2)c(O)c1 | 38.3 |
| COc1ccc(C(=O)CCc2ccc(OC)c(OC)c2OC)c(O)c1 | 7.5 |
| COc1ccc(CCC(=O)c2ccc(OC)c(OC)c2)cc1OC | 13.8 |
| COc1ccc(CCC(=O)c2ccc(OC)c(OC)c2)cc1 | 54.4 |
| COc1ccc(CCCc2ccc(OC)c(OC)c2)cc1O | 57.4 |
| COc1ccc(/C=C/C(=O)c2ccc(OC)c(OC)c2)cc1 | 52.1 |
| COc1ccc(/C=C/C(=O)c2ccc(OC)c(OC)c2)cc1O | 2.6 |
| COc1ccc(C(=O)/C=C/c2ccc(OC)c(OC)c2)c(O)c1 | 49.6 |
| COc1ccc(CCCc2cccc(O)c2)cc1 | 40.1 |
| COc1ccc(C(=O)CCc2ccc3c(c2)OCO3)c(OC)c1 | 6.6 |

tested on: RAW264.7; assay: Antiinflammatory activity in mouse RAW264.7 cells assessed as inhibition of LPS induced iNOS-dependent nitric oxide production after 24 hrs by Griess assay; format: functional, cell-based; details: RAW264.7, 24 h

| SMILES | IC50 [µg/mL] |
| --- | --- |
| COc1ccc(C(=O)/C=C/c2cc(OC)ccc2OC)c(O)c1 | > 10 |
| COc1ccc(C(=O)CCc2ccc(OC)c(OC)c2)c(O)c1 | 7.86 (≈ 24.8 µM) |
| COc1ccc(C(=O)CCc2ccc(OC)c(OC)c2OC)c(O)c1 | > 10 |
| COc1ccc(CCC(=O)c2ccc(OC)c(OC)c2)cc1OC | > 10 |
| COc1ccc(CCC(=O)c2ccc(OC)c(OC)c2)cc1 | 4.35 (≈ 14.5 µM) |
| COc1ccc(CCCc2ccc(OC)c(OC)c2)cc1O | 3.92 (≈ 13 µM) |
| COc1ccc(/C=C/C(=O)c2ccc(OC)c(OC)c2)cc1 | 2.43 (≈ 8.15 µM) |
| COc1ccc(/C=C/C(=O)c2ccc(OC)c(OC)c2)cc1O | > 10 |
| COc1ccc(C(=O)/C=C/c2ccc(OC)c(OC)c2)c(O)c1 | 5.05 (≈ 16.1 µM) |
| COc1ccc(CCCc2cccc(O)c2)cc1 | 7.72 (≈ 31.9 µM) |
| COc1ccc(C(=O)CCc2ccc3c(c2)OCO3)c(OC)c1 | > 10 |

tested on: not listed separately; assay: Cytotoxicity against LPS-stimulated mouse RAW264.7 cells assessed as cell viability at 10 ug/ml after 24 hrs by MTT assay relative to control; format: cell-based; details: LPS-stimulated RAW264.7 cells, read-out: Activity

| SMILES | viability at 24 h, 10 ug/ml [%] |
| --- | --- |
| COc1ccc(C(=O)/C=C/c2cc(OC)ccc2OC)c(O)c1 | 66.5 |
| COc1ccc(C(=O)CCc2ccc(OC)c(OC)c2)c(O)c1 | 67.5 |
| COc1ccc(C(=O)CCc2ccc(OC)c(OC)c2OC)c(O)c1 | 94 |
| COc1ccc(CCC(=O)c2ccc(OC)c(OC)c2)cc1OC | 95.3 |
| COc1ccc(CCC(=O)c2ccc(OC)c(OC)c2)cc1 | 90.6 |
| COc1ccc(CCCc2ccc(OC)c(OC)c2)cc1O | 51.9 |
| COc1ccc(/C=C/C(=O)c2ccc(OC)c(OC)c2)cc1 | 73.9 |
| COc1ccc(/C=C/C(=O)c2ccc(OC)c(OC)c2)cc1O | 73.5 |
| COc1ccc(C(=O)/C=C/c2ccc(OC)c(OC)c2)c(O)c1 | 70 |
| COc1ccc(CCCc2cccc(O)c2)cc1 | 76.2 |
| COc1ccc(C(=O)CCc2ccc3c(c2)OCO3)c(OC)c1 | 81 |

tested on: not listed separately; assay: Cytotoxicity against LPS-stimulated mouse RAW264.7 cells assessed as cell viability at 5 ug/ml after 24 hrs by MTT assay relative to control; format: cell-based; details: LPS-stimulated RAW264.7 cells, read-out: Activity

| SMILES | viability at 24 h, 5 ug/ml [%] |
| --- | --- |
| COc1ccc(C(=O)/C=C/c2cc(OC)ccc2OC)c(O)c1 | 71.1 |
| COc1ccc(C(=O)CCc2ccc(OC)c(OC)c2)c(O)c1 | 75.2 |
| COc1ccc(C(=O)CCc2ccc(OC)c(OC)c2OC)c(O)c1 | 94.8 |
| COc1ccc(CCC(=O)c2ccc(OC)c(OC)c2)cc1OC | 96.2 |
| COc1ccc(CCC(=O)c2ccc(OC)c(OC)c2)cc1 | 95.1 |
| COc1ccc(CCCc2ccc(OC)c(OC)c2)cc1O | 86.2 |
| COc1ccc(/C=C/C(=O)c2ccc(OC)c(OC)c2)cc1 | 78.9 |
| COc1ccc(/C=C/C(=O)c2ccc(OC)c(OC)c2)cc1O | 73 |
| COc1ccc(C(=O)/C=C/c2ccc(OC)c(OC)c2)c(O)c1 | 73.9 |
| COc1ccc(CCCc2cccc(O)c2)cc1 | 94.1 |
| COc1ccc(C(=O)CCc2ccc3c(c2)OCO3)c(OC)c1 | 83.2 |

tested on: not listed separately; assay: Cytotoxicity against LPS-stimulated mouse RAW264.7 cells assessed as cell viability at 1.25 ug/ml after 24 hrs by MTT assay relative to control; format: cell-based; details: LPS-stimulated RAW264.7 cells, read-out: Activity

| SMILES | viability at 24 h, 1.25 ug/ml [%] |
| --- | --- |
| COc1ccc(C(=O)/C=C/c2cc(OC)ccc2OC)c(O)c1 | 95.4 |
| COc1ccc(C(=O)CCc2ccc(OC)c(OC)c2)c(O)c1 | 91.8 |
| COc1ccc(C(=O)CCc2ccc(OC)c(OC)c2OC)c(O)c1 | 101 |
| COc1ccc(CCC(=O)c2ccc(OC)c(OC)c2)cc1OC | 99.6 |
| COc1ccc(CCC(=O)c2ccc(OC)c(OC)c2)cc1 | 99.1 |
| COc1ccc(CCCc2ccc(OC)c(OC)c2)cc1O | 98 |
| COc1ccc(/C=C/C(=O)c2ccc(OC)c(OC)c2)cc1 | 97.2 |
| COc1ccc(/C=C/C(=O)c2ccc(OC)c(OC)c2)cc1O | 91.4 |
| COc1ccc(C(=O)/C=C/c2ccc(OC)c(OC)c2)c(O)c1 | 99.7 |
| COc1ccc(CCCc2cccc(O)c2)cc1 | 99.9 |
| COc1ccc(C(=O)CCc2ccc3c(c2)OCO3)c(OC)c1 | 87.4 |

tested on: RAW264.7; assay: Antiinflammatory activity in mouse RAW264.7 cells assessed as inhibition of LPS induced iNOS-dependent nitric oxide production at 10 ug/ml after 24 hrs by Griess assay relative to control; format: functional; details: RAW264.7, 24 h

| SMILES | inhibition at 10 µg/mL [%] |
| --- | --- |
| COc1ccc(C(=O)/C=C/c2cc(OC)ccc2OC)c(O)c1 | 26.6 |
| COc1ccc(C(=O)CCc2ccc(OC)c(OC)c2)c(O)c1 | 56.2 |
| COc1ccc(C(=O)CCc2ccc(OC)c(OC)c2OC)c(O)c1 | 10.3 |
| COc1ccc(CCC(=O)c2ccc(OC)c(OC)c2)cc1OC | 31.1 |
| COc1ccc(CCC(=O)c2ccc(OC)c(OC)c2)cc1 | 57.2 |
| COc1ccc(CCCc2ccc(OC)c(OC)c2)cc1O | 83.6 |
| COc1ccc(/C=C/C(=O)c2ccc(OC)c(OC)c2)cc1 | 85.5 |
| COc1ccc(/C=C/C(=O)c2ccc(OC)c(OC)c2)cc1O | 9.8 |
| COc1ccc(C(=O)/C=C/c2ccc(OC)c(OC)c2)c(O)c1 | 77.3 |
| COc1ccc(CCCc2cccc(O)c2)cc1 | 55.9 |
| COc1ccc(C(=O)CCc2ccc3c(c2)OCO3)c(OC)c1 | 9.8 |
